{
  "source": "paper PMC3813957",
  "about": "(Cancer prevention research (Philadelphia, Pa.), 2013)",
  "key": {"[1]": {"tested_on": "MNU-induced rat mammary cancers", "settings": "varied doses; cited from earlier work"}, "[2]": {"tested_on": "methylnitrosourea-induced mammary cancers", "test": "Prevention of methylnitrosourea-induced mammary carcinogenesis", "assay_type": "in vivo, female Sprague-Dawley rats", "settings": "for reduction of final tumor multiplicity: 6 mg/kg BW"}, "[3]": {"tested_on": "established mammary cancers induced by methylnitrosourea", "test": "Therapy of established", "assay_type": "in vivo, female Sprague-Dawley rats", "settings": "for reduction of average tumor size: vehicle group increased 250%"}, "[4]": {"tested_on": "phosphorylated ERKs (T202/Y204)", "test": "Biomarker study: Western blot of phosphorylated ERK in mammary cancers", "assay_type": "in vivo, female Sprague-Dawley rats"}, "[5]": {"settings": "human, 150 mg, steady state; cited from earlier work"}, "[6]": {"settings": "cited from earlier work"}, "[7]": {"tested_on": "brain metastases", "settings": "nine patients, median dose 1500 mg weekly; cited from earlier work"}, "[8]": {"tested_on": "transgenic model of ER negative breast cancer", "settings": "ref Lubet and Grubbs, unpublished data; cited from earlier work"}, "[9]": {"tested_on": "carcinogen-induced urinary bladder model", "settings": "ref Lubet and Grubbs, unpublished data; cited from earlier work"}, "[10]": {"test": "Serum pharmacokinetics of erlotinib and OSI-420 after gavage", "settings": "for concentration at 2 h / concentration at 4 h / concentration at 8 h / concentration at 24 h / concentration at 48 h / half-life / AUC(0-t) / Cmax / Tmax: female, Sprague-Dawley, rat, serum"}, "[11]": {"settings": "Experiment C, weekly dosing at either 42 or 21 mg/kg BW"}, "[12]": {"settings": "rat 42 mg/kg BW vs human 150 mg"}, "[13]": {"settings": "rat effective daily dose (6 mg/kg BW) vs human"}},
  "note": "Where two headings read alike, the source gives them in different places.",
  "data": [
    {"smiles": "COc1cc2ncnc(Nc3ccc(F)c(Cl)c3)c2cc1OCCCN1CCOCC1", "note": "[gefitinib]", "values": [
      {"measurement": "tumor multiplicity", "setting": "[1]", "result": "dose dependent decrease"}
    ]},
    {"smiles": "C#Cc1cccc(Nc2ncnc3cc(OCCOC)c(OCCOC)cc23)c1", "note": "[Erlotinib]", "values": [
      {"measurement": "tumor incidence and latency", "setting": "[2]; Experiment A, 6 mg/kg BW daily, one day on/one day off, or two days on/two days off, all three regimens vs controls P<.01", "result": "reductions of tumor incidence and increases in latency"},
      {"measurement": "reduction of final tumor multiplicity", "setting": "[2]; Experiment A, 2 days on/2 days off, vs vehicle controls P<.001", "result": 75, "unit": "%"},
      {"measurement": "reduction of final tumor multiplicity", "setting": "[2]; Experiment A, intermittent dosing (both schedules)", "result": "65–75%"},
      {"measurement": "tumor incidence and latency", "setting": "[2]; Experiment B, 6 mg/kg BW daily, 6 mg/kg BW two days on/two days off, or 42 mg/kg BW weekly, all three vs controls P<.01", "result": "reduced tumor incidence and increased tumor latency"},
      {"measurement": "reduction of tumor multiplicity", "setting": "[2]; Experiment B, 6 mg/kg BW daily, vs controls P<.005", "result": 85, "unit": "%"},
      {"measurement": "tumor incidence", "setting": "[2]; [11]", "result": "strongly inhibited"},
      {"measurement": "tumor multiplicity", "setting": "[2]; [11]", "result": "strongly inhibited"},
      {"measurement": "preventive activity (tumor incidence and multiplicity)", "setting": "[2]; initial studies, 6 mg/Kg BW/day, data not shown", "result": "highly effective"},
      {"measurement": "tumor incidence and multiplicity", "setting": "[2]; initial studies, various daily doses up to 6 mg/kg BW/day", "result": "dose dependent decrease"},
      {"measurement": "decrease of tumor multiplicity", "setting": "[2]; lower weekly dose 21 mg/kg BW", "result": "approximately 85%"},
      {"measurement": "reduction of average tumor size", "setting": "[3]; 6 mg/kg BW daily for 6 weeks", "result": 40, "unit": "%"},
      {"measurement": "reduction of average tumor size", "setting": "[3]; 42 mg/kg BW weekly for 6 weeks", "result": 25, "unit": "%"},
      {"measurement": "share of mammary tumors that decreased by 60% in size", "setting": "[3]; either daily (6 mg/kg BW) or weekly (42 mg/kg BW) dosing, 6 weeks", "result": "at least 50%"},
      {"measurement": "phosphorylation of ERK in cancers (Western blot)", "setting": "[4]; 6 mg/kg BW/day daily for 7 days", "result": "striking decrease"},
      {"measurement": "levels of phosphorylated ERK", "setting": "[4]; rats treated daily/weekly (abstract)", "result": "strongly decreased"},
      {"measurement": "phosphorylated ERK in cancers (Western blot)", "setting": "[4]; single weekly dose 42 mg/kg BW, examined 6 days following the treatment", "result": "strong decrease"},
      {"measurement": "AUC0–24", "setting": "[5]", "result": 26500, "unit": "ng·h/mL"},
      {"measurement": "Cmax", "setting": "[5]", "result": 1740, "unit": "ng/mL"},
      {"measurement": "Tmax", "setting": "[5]", "result": 2.44, "unit": "h"},
      {"measurement": "patients with moderate (grade 2) rash", "setting": "[6]; 2000 mg/week", "result": 42, "unit": "%"},
      {"measurement": "severe (grade 3) rash or diarrhea", "setting": "[6]; weekly dosing, doses up to 2000 mg/week, any dose level", "result": "no severe (grade 3) rash or diarrhea"},
      {"measurement": "efficacy", "setting": "[7]", "result": "significant efficacy was observed"},
      {"measurement": "efficacy of weekly treatment", "setting": "[8]", "result": "strong efficacy"},
      {"measurement": "efficacy of weekly treatment", "setting": "[9]", "result": "strong efficacy"},
      {"measurement": "concentration at 2 h", "setting": "[10]; oral, 6 mg/kg BW/day", "result": "708 ± 48", "unit": "ng/mL"},
      {"measurement": "concentration at 4 h", "setting": "[10]; oral, 6 mg/kg BW/day", "result": "427 ± 19", "unit": "ng/mL"},
      {"measurement": "concentration at 8 h", "setting": "[10]; oral, 6 mg/kg BW/day", "result": "277 ± 102", "unit": "ng/mL"},
      {"measurement": "concentration at 24 h", "setting": "[10]; oral, 6 mg/kg BW/day", "result": "25 ± 9", "unit": "ng/mL"},
      {"measurement": "concentration at 48 h", "setting": "[10]; oral, 6 mg/kg BW/day", "result": 0, "unit": "ng/mL"},
      {"measurement": "half-life", "setting": "[10]; oral, 6 mg/kg BW/day, half-life, daily erlotinib (discussion)", "result": "5 to 6", "unit": "h"},
      {"measurement": "concentration at 2 h", "setting": "[10]; oral, 42 mg/kg BW", "result": "1350 ± 96", "unit": "ng/mL"},
      {"measurement": "concentration at 4 h", "setting": "[10]; oral, 42 mg/kg BW", "result": "1060 ± 184", "unit": "ng/mL"},
      {"measurement": "concentration at 8 h", "setting": "[10]; oral, 42 mg/kg BW", "result": "1590 ± 259", "unit": "ng/mL"},
      {"measurement": "concentration at 24 h", "setting": "[10]; oral, 42 mg/kg BW", "result": "470 ± 121", "unit": "ng/mL"},
      {"measurement": "concentration at 48 h", "setting": "[10]; oral, 42 mg/kg BW", "result": "52 ± 11", "unit": "ng/mL"},
      {"measurement": "half-life", "setting": "[10]; oral, serum half-life", "result": "≤ 8", "unit": "h"},
      {"measurement": "AUC(0-t)", "setting": "[10]; po, 6 mg/kg", "result": 4680, "unit": "ng·h/mL"},
      {"measurement": "Cmax", "setting": "[10]; po, 6 mg/kg", "result": 708, "unit": "ng/mL"},
      {"measurement": "Tmax", "setting": "[10]; po, 6 mg/kg", "result": 2, "unit": "h"},
      {"measurement": "half-life", "setting": "[10]; po, 6 mg/kg, T1/2, rat, non-compartmental", "result": 4.61, "unit": "h"},
      {"measurement": "AUC(0-t)", "setting": "[10]; po, 42 mg/kg", "result": 28400, "unit": "ng·h/mL"},
      {"measurement": "Cmax", "setting": "[10]; po, 42 mg/kg", "result": 1590, "unit": "ng/mL"},
      {"measurement": "Tmax", "setting": "[10]; po, 42 mg/kg", "result": 8, "unit": "h"},
      {"measurement": "half-life", "setting": "[10]; po, 42 mg/kg, T1/2, rat, non-compartmental", "result": 8.06, "unit": "h"},
      {"measurement": "AUC relative to the human dose", "setting": "[10]; rat 6 mg/Kg BW vs human 150 mg", "result": "< 20", "unit": "%"},
      {"measurement": "Cmax relative to human levels", "setting": "[10]; rat 6 mg/Kg BW vs human 150 mg", "result": "< 50", "unit": "%"},
      {"measurement": "AUC compared with the human", "setting": "[10]; [12]", "result": "similar"},
      {"measurement": "Cmax compared with that achieved in humans", "setting": "[10]; [12]", "result": "similar"},
      {"measurement": "AUC less than in the human", "setting": "[10]; [13]", "result": 5, "unit": "×"},
      {"measurement": "Cmax lower than in the human", "setting": "[10]; [13]", "result": "approximately 60%"}
    ]}
  ]
}
